Experiments:
[1] = test system: T47D (PI3Kα-H1047R) cell line; experiment: HTRF phospho-AKT(S473) cell assay in T47D cells; type: cell-based, human
Outline: (§1)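 Cells plated overnight (T47D in RPMI/10% FBS/0.2 units/mL insulin; SKBR3 in McCoy's 5A/10% FBS), then given 12-point 1:3 compound series (top 5 μM T47D, 10 μM SKBR3; ≤0.5% DMSO) for 2 h at 37° C. SKBR3 stimulated with 70 ng/ml PDGF-BB for final 15 min. Lysate pAKT(S473) by HTRF; IC50 calculated.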

[2] = test system: SKBR3 (PI3Kα-Wild Type) cell line; experiment: HTRF phospho-AKT(S473) cell assay in SKBR3 cells; type: cell-based, human
Outline: as §1

[3] = Homo sapiens; T47D (PI3Kα-H1047R) cells, HTRF phospho-AKT(S473), 2 hours compound incubation
[4] = Homo sapiens, SK-BR-3; SKBR3 (PI3Kα-Wild Type) cells, HTRF phospho-AKT(S473), 2 hours compound incubation, PDGF-BB stimulated
[5] = Homo sapiens; HTRF phospho-AKT(S473), T47D (PI3Kα-H1047R) cells, 2 hours compound incubation
[6] = Homo sapiens, SK-BR-3; HTRF phospho-AKT(S473), SKBR3 (PI3Kα-Wild Type) cells, 2 hours compound incubation, PDGF-BB stimulated

| SMILES | IC50 [1, 3] [nM] | IC50 [2, 4] [nM] | IC50 [1, 5] [nM] | IC50 [2, 6] [nM] |
| --- | --- | --- | --- | --- |
| Cc1cc([C@@H](C)Nc2ccc(Cl)nc2C(=O)NS(C)(=O)=O)c2nc(N3CCN(c4ncc(C#N)cc4F)CC3)n(C)c(=O)c2c1 [Compound 262, (R)-6-chloro-3-((1-(2-(4-(5-cyano-3-fluoropyridin-2-yl)piperazin-1-yl)-3,6-dimethyl-4-oxo-3,4-dihydroquinazolin-8-yl)ethyl)amino)-N-(methylsulfonyl) picolinamide] | < 250 | 1000 to 5000 |  |  |
| Cc1cc([C@@H](C)Nc2ccc(Cl)nc2C(=O)NS(C)(=O)=O)c2nc(N3CCc4nn(C(F)F)cc4C3)n(C)c(=O)c2c1 [Compound 627, (R)-6-chloro-3-((1-(2-(2-(difluoromethyl)-2,4,6,7-tetrahydro-5H-pyrazolo[4,3-c]pyridin-5-yl)-3,6-dimethyl-4-oxo-3,4-dihydroquinazolin-8-yl)ethyl)amino)-N-(methylsulfonyl) picolinamide] |  |  | < 250 | 1000 to 5000 |
| Cc1cc([C@@H](C)Nc2ccc(Cl)nc2C(=O)NS(C)(=O)=O)c2nc(N3CC[C@H](Nc4ncccn4)C3)n(C)c(=O)c2c1 [Compound 540, 6-chloro-3-(((R)-1-(3,6-dimethyl-4-oxo-2-((S)-3-(pyrimidin-2-ylamino)pyrrolidin-1-yl)-3,4-dihydroquinazolin-8-yl)ethyl)amino)-N-(methylsulfonyl) picolinamide] |  |  | 250 to 500 | ≥ 5000 |
| Cc1cc([C@@H](C)Nc2ccc(Cl)nc2C(=O)NS(C)(=O)=O)c2nc(N3CC[C@H](c4ccnc(C)n4)C3)n(C)c(=O)c2c1 (relative stereo) [Compound 599, 6-chloro-3-(((R)-1-(3,6-dimethyl-2-((R*)-3-(2-methylpyrimidin-4-yl)pyrrolidin-1-yl)-4-oxo-3,4-dihydroquinazolin-8-yl)ethyl)amino)-N-(methylsulfonyl) picolinamide] |  |  | 250 to 500 | ≥ 5000 |
| Cc1cc([C@@H](C)Nc2ccc(Cl)nc2C(=O)NS(C)(=O)=O)c2nc(N3CCC(c4n[nH]cc4Cl)CC3)n(C)c(=O)c2c1 [Compound 717, (R)-6-chloro-3-((1-(2-(4-(4-chloro-1H-pyrazol-3-yl)piperidin-1-yl)-3,6-dimethyl-4-oxo-3,4-dihydroquinazolin-8-yl)ethyl)amino)-N-(methylsulfonyl) picolinamide] |  |  | 250 to 500 | ≥ 5000 |
| Cc1cc([C@@H](C)Nc2ccc(Cl)nc2C(=O)NS(C)(=O)=O)c2nc(-c3ccc4cn(C)nc4c3)n(C)c(=O)c2c1 [Compound 835, (R)-6-chloro-3-((1-(3,6-dimethyl-2-(2-methyl-2H-indazol-6-yl)-4-oxo-3,4-dihydroquinazolin-8-yl)ethyl)amino)-N-(methylsulfonyl) picolinamide] |  |  | 250 to 500 | 1000 to 5000 |
| Cc1cc([C@@H](C)Nc2ccc(Cl)nc2C(=O)NS(C)(=O)=O)c2nc(N3CCC[C@@H](c4ccc(C)nc4)C3)n(C)c(=O)c2c1 (mixture of isomers) [Compound 215, 6-chloro-3-(((R)-1-(3,6-dimethyl-2-((RS)-3-(6-methylpyridin-3-yl)piperidin-1-yl)-4-oxo-3,4-dihydroquinazolin-8-yl)ethyl)amino)-N-(methylsulfonyl) picolinamide] | < 250 | 1000 to 5000 |  |  |
| Cc1cc([C@@H](C)Nc2ccc(Cl)nc2C(=O)NS(C)(=O)=O)c2nc(N3Cc4cn(-c5cccnc5C)nc4C3)n(C)c(=O)c2c1 [Compound 246, (R)-6-chloro-3-((1-(3,6-dimethyl-2-(2-(2-methylpyridin-3-yl)-2,6-dihydropyrrolo[3,4-c]pyrazol-5(4H)-yl)-4-oxo-3,4-dihydroquinazolin-8-yl)ethyl)amino)-N-(methylsulfonyl) picolinamide] | < 250 | 1000 to 5000 |  |  |
| Cc1cc([C@@H](C)Nc2ccc(Cl)nc2C(=O)NS(C)(=O)=O)c2nc(N3CCN(c4ncccn4)CC3)n(C)c(=O)c2c1 [Compound 169, (R)-6-chloro-3-((1-(3,6-dimethyl-4-oxo-2-(4-(pyrimidin-2-yl)piperazin-1-yl)-3,4-dihydroquinazolin-8-yl)ethyl)amino)-N-(methylsulfonyl) picolinamide] | < 250 | 1000 to 5000 |  |  |
| Cc1cc([C@@H](C)Nc2ccc(Cl)nc2C(=O)NS(C)(=O)=O)c2nc(N3Cc4cn(-c5ncc(C#N)cc5C)nc4C3)n(C)c(=O)c2c1 [Compound 698, (R)-6-chloro-3-((1-(2-(2-(5-cyano-3-methylpyridin-2-yl)-2,6-dihydropyrrolo[3,4-c]pyrazol-5(4H)-yl)-3,6-dimethyl-4-oxo-3,4-dihydroquinazolin-8-yl)ethyl)amino)-N-(methylsulfonyl) picolinamide] |  |  | 250 to 500 | 1000 to 5000 |
| Cc1cc([C@@H](C)Nc2ccc(Cl)nc2C(=O)NS(C)(=O)=O)c2nc(N3C[C@@H]4[C@H](C3)[C@H]4c3cn(C(C)C)nn3)n(C)c(=O)c2c1 [Compound 528, 6-chloro-3-(((R)-1-(2-((1R,5S,6R)-6-(1-isopropyl-1H-1,2,3-triazol-4-yl)-3-azabicyclo[3.1.0]hexan-3-yl)-3,6-dimethyl-4-oxo-3,4-dihydroquinazolin-8-yl)ethyl)amino)-N-(methylsulfonyl) picolinamide] |  |  | < 250 | 1000 to 5000 |
| Cc1cc([C@@H](C)Nc2ccc(Cl)nc2C(=O)NS(C)(=O)=O)c2nc(-c3ccc4[nH]ncc4c3)n(C)c(=O)c2c1 [Compound 832, (R)-3-((1-(2-(1H-indazol-5-yl)-3,6-dimethyl-4-oxo-3,4-dihydroquinazolin-8-yl)ethyl)amino)-6-chloro-N-(methylsulfonyl) picolinamide] |  |  | 250 to 500 | 1000 to 5000 |
| Cc1cc([C@@H](C)Nc2ccc(Cl)nc2C(=O)NS(C)(=O)=O)c2nc(N3C[C@@H]4[C@H](C3)[C@H]4n3cc(C(F)(F)F)cn3)n(C)c(=O)c2c1 [Compound 741, 6-chloro-3-(((R)-1-(3,6-dimethyl-4-oxo-2-((1R,5S,6S)-6-(4-(trifluoromethyl)-1H-pyrazol-1-yl)-3-azabicyclo[3.1.0]hexan-3-yl)-3,4-dihydroquinazolin-8-yl)ethyl)amino)-N-(methylsulfonyl) picolinamide] |  |  | 500 to 1000 | ≥ 5000 |
| Cc1cc([C@@H](C)Nc2ccc(Cl)nc2C(=O)NS(C)(=O)=O)c2nc(N3CCC(c4ccn(-c5cccnc5)n4)CC3)n(C)c(=O)c2c1 [Compound 312, (R)-6-chloro-3-((1-(3,6-dimethyl-4-oxo-2-(4-(1-(pyridin-3-yl)-1H-pyrazol-3-yl)piperidin-1-yl)-3,4-dihydroquinazolin-8-yl)ethyl)amino)-N-(methylsulfonyl) picolinamide] | < 250 | 1000 to 5000 |  |  |
| Cc1cc([C@@H](C)Nc2ccc(Cl)nc2C(=O)NS(C)(=O)=O)c2nc(N3C[C@H]4C[C@@H](C3)C4c3n[nH]cc3F)n(C)c(=O)c2c1 (mixture of isomers) [Compound 650, 6-chloro-3-(((1R)-1-(2-((1R,5S)-6-(4-fluoro-1H-pyrazol-3-yl)-3-azabicyclo[3.1.1]heptan-3-yl)-3,6-dimethyl-4-oxo-3,4-dihydroquinazolin-8-yl)ethyl)amino)-N-(methylsulfonyl) picolinamide] |  |  | 250 to 500 | ≥ 5000 |
| Cc1cc([C@@H](C)Nc2ccc(Cl)nc2C(=O)NS(C)(=O)=O)c2nc(N3C[C@@H]4[C@H](C3)[C@H]4c3cn(CC(F)(F)F)nn3)n(C)c(=O)c2c1 [Compound 478, 6-chloro-3-(((R)-1-(3,6-dimethyl-4-oxo-2-((1R,5S,6R)-6-(1-(2,2,2-trifluoroethyl)-1H-1,2,3-triazol-4-yl)-3-azabicyclo[3.1.0]hexan-3-yl)-3,4-dihydroquinazolin-8-yl)ethyl)amino)-N-(methylsulfonyl) picolinamide] |  |  | < 250 | 1000 to 5000 |
| [2H]C([2H])([2H])n1ccc([C@H]2[C@@H]3CN(c4nc5c([C@@H](C)Nc6ccc(Cl)nc6C(=O)NS(C)(=O)=O)cc(C)cc5c(=O)n4C)C[C@@H]32)n1 [Compound 493, 6-chloro-3-(((R)-1-(3,6-dimethyl-2-((1R,5S,6R)-6-(1-(methyl-d3)-1H-pyrazol-3-yl)-3-azabicyclo[3.1.0]hexan-3-yl)-4-oxo-3,4-dihydroquinazolin-8-yl)ethyl)amino)-N-(methylsulfonyl) picolinamide] |  |  | < 250 | 1000 to 5000 |
| Cc1cc([C@@H](C)Nc2ccc(Cl)nc2C(=O)NS(C)(=O)=O)c2nc(N3CCC(c4nnc(C)n4C(F)F)CC3)n(C)c(=O)c2c1 [Compound 725, (R)-6-chloro-3-((1-(2-(4-(4-(difluoromethyl)-5-methyl-4H-1,2,4-triazol-3-yl)piperidin-1-yl)-3,6-dimethyl-4-oxo-3,4-dihydroquinazolin-8-yl)ethyl)amino)-N-(methylsulfonyl) picolinamide] |  |  | 250 to 500 | 1000 to 5000 |
| Cc1cc([C@@H](C)Nc2ccc(Cl)nc2C(=O)NS(C)(=O)=O)c2nc(N3CC[C@H](Oc4ccnnc4)C3)n(C)c(=O)c2c1 [Compound 353, 6-chloro-3-(((R)-1-(3,6-dimethyl-4-oxo-2-((S)-3-(pyridazin-4-yloxy)pyrrolidin-1-yl)-3,4-dihydroquinazolin-8-yl)ethyl)amino)-N-(methylsulfonyl) picolinamide] | 250 to 500 | 1000 to 5000 |  |  |
| Cc1cc([C@@H](C)Nc2ccc(Cl)nc2C(=O)NS(C)(=O)=O)c2nc(N3C[C@@H]4[C@@H](COc5ccnn5C)[C@@H]4C3)n(C)c(=O)c2c1 [Compound 341, 6-chloro-3-(((R)-1-(3,6-dimethyl-2-((1R,5S,6R)-6-(((1-methyl-1H-pyrazol-5-yl)oxy)methyl)-3-azabicyclo[3.1.0]hexan-3-yl)-4-oxo-3,4-dihydroquinazolin-8-yl)ethyl)amino)-N-(methylsulfonyl) picolinamide] | < 250 | 1000 to 5000 |  |  |

Source: patent publication US12281122B1, “PI3K inhibitors” (Cogent Biosciences, Inc., priority 2023, dated 2025)
